# Experimental data reported in publication PMC12154426, “TPP-Based Nanovesicles Kill MDR Neuroblastoma Cells and Induce Moderate ROS Increase, While Exerting Low Toxicity Towards Primary Cell Cultures: An In Vitro Study” (International Journal of Molecular Sciences, 2025).
# Where “and” joins values, the source holds several entries; their conditions need not be identical. Identical values can stand only once.
# Columns and labels:
# HTLA 230 = assay: DCFH assay of ROS (H2O2) production, HTLA 230; type: cell-based, human; settings: for highest value of DCFH-positive cells: normalized for protein content, control = 1
# Description: It has been reported that the administration of TPP-based compounds, including TPP-based bola amphiphilic nanovesicles such as BPPB, induce ROS overproduction, thus causing oxidative stress (OS), which has been widely reported to be involved in the anticancer effect of several chemotherapeutic drugs, including etoposide, doxorubicin [38], and cisplatin [39]. […] On the contrary, the role of ROS was scarcely present in PLX-resistant CMM cells exposed to the same concentrations of BPPB [13]. With these considerations, we evaluated ROS levels also in NB cells treated with BPPB, since this experiment would have been particularly helpful to understand whether (i) these nanovesicles’ preparation exerts its cytotoxic action on HTLA 230 and ER cells through ROS production, as in PLX-sensitive CMM cells; or (ii) the resistance acquired by HTLA ER based on high levels of antioxidants, following chronic treatment with etoposide, conferred resistance also to a preparation based on the use of nanovesicles (BPPBs). Moreover, the evaluation of ROS levels can be an indirect method to ascertain and confirm the presence of apoptosis, since as reported, low levels of ROS induce apoptosis and high levels induce necrosis.Therefore, to investigate the pro-oxidant action of BPPB also in HTLA 230 and HTLA ER NB cells, ROS levels were evaluated in both NB cell populations exposed for 24–72 h to increasing concentrations (0.1–2 µM) of BPPB using the DCFH essay (Figure 4). The results were reported as a percentage of cells positive to DCFH normalized for protein content. Raw fluorescence data are, in fact, not applicable since an increase in fluorescence could be due to a high number of cells but also to an increased production of H2O2 induced by the treatments. This is the reason why it is necessary to normalize the fluorescence data to the protein content. Other cellular assays measuring oxidative damage, including lipid peroxidation or protein carbonylation, are likely too complex for low-tier early hazard assessment or hazard screening. Conversely, the cellular DCFH assay is a simpler and widely used alternative, which measures intracellular ROS production by forming a fluorescent product (DCF) upon oxidation by free radicals produced by cells.
# The production of H2O2 was evaluated using 2′-7′-dichlorofluorescein-diacetate (DCFH-DA; Merk Life Science S.r.l. Milan, Italy), as previously reported. Briefly, NB cells (10^4 cells/well) were seeded in 96-well plates (Corning) and treated. Then, cells were stained with 2′-7′ di-chloro-fluorescein-diacetate (DCFH-DA; Sigma-Aldrich) and incubated with 90% DMSO for an additional 10 min in the dark. The generated fluorescence intensity was monitored with a Perkin Elmer fluorometer (Perkin Elmer Life and Analytical Sciences, Shelton, WA, USA) at 485/530 nm excitation/emission. Values were normalized to the protein content.
# spinal cord astrocytes = assay: MTT cytotoxicity assay on spinal cord astrocyte primary cell cultures; type: cell-based, C57BL/6J mice; settings: for IC50: 0.12–11.73 µM
# Description: Similarly to the assessment of haemolytic toxicity, the evaluation of cytotoxicity towards mammalian cells is another pivotal step to afford in the early stage of drug development, before undertaking other costly and time-consuming in vivo experiments. […] The cytotoxicity of quaternary phosphonium salts (QPSs) depends mainly on their physicochemical characteristics, including the number of carbon atoms of alkyl chains, the presence of aromatic ring(s) on which the P^+ cationic charge can delocalize, the type of counter anions, the possible colloidal properties, and the probable capability to form nano aggregates. The specific types of cells exposed to QPSs can further influence their cytotoxicity. In this regard, the constituents of membranes of cancer cells are different from those of mammalian cells. This makes them more susceptible to the disruptive action of cationic compounds, thus making QPSs’ possible cytotoxicity towards tumour cells higher than towards normal ones. Anyway, a certain cytotoxicity could manifest also in normal cells and quantifying it is mandatory. Based on these considerations, although NB is a neuroendocrine tumour which derives from neural crest cells, we investigated the BPPB toxic effects on primary cell cultures, namely spinal cord astrocytes and cortical neurons. Astrocyte primary cultures have emerged as an important tool for understanding the responses of normal cells under both physiological and pathological conditions. On the other hand, primary neuronal cell cultures are best suited for drug discovery and drug development. Primary cell cultures freshly prepared from animals reproduce physiological conditions astonishingly like the in vivo situation. As for our knowledge, it is the first time that the cytotoxicity of a bola amphiphilic compound is assessed on primary cultures of astrocytes and neurons. More generically, the existent studies on the cytotoxicity of synthetic QPSs, or of a generic exogenous synthetic cationic organic compound or polymer on astrocytes and neurons primary cell cultures, are limited. As examples, upon a rapid survey, we have found a study on the mechanism by which amine-modified cationic polystyrene nanoparticles induced cell death in a human brain astrocytoma cell line, but not in primary astrocytes. A study on the mechanism by which endogenous eosinophil cationic protein/RNase 3 induced cell death in primary astrocytes was found, but exogenous synthetic cationic compounds were not considered. Concerning primary neurons, the cytotoxicity of both a commercial (LA2000) and a newly prepared cationic lipid (Arg (TFA^−)) vs. primary neurons was assessed by Aoshima et al.. The cytotoxicity of a library of 80 compounds, among which only 2/3 molecules were cationic salts, was evaluated in human-induced pluripotent stem cell (iPSC)-derived neural stem cells, neurons, and astrocytes by Pei et al.. Vidal et al. assessed the neurotoxicity of a cationic fourth generation (G4) amine dendrimer (G4-NH2) towards primary neuron cell cultures. […] Cell viability in neurons and astrocytes, treated with increasing concentrations of BPPB for 24, 48, and 72 h, was assessed using the MTT essay, which is a method endowed with simplicity, convenience, quantitative and high throughput, as well as reproducibility. MTT is a well-established method for assessing cell viability, and its reliability is supported by standardized protocols in many areas of research.
# Astrocytes were prepared from the spinal cord of neonatal 2-day-old C57BL/6J mice as previously described, with minor modifications. Briefly, two days after birth, pups (P1-2) were euthanized by cervical dislocation by trained personnel, and spinal cords were rapidly removed. […]
compound,measurement,setting,value
"c1ccc([P+](CCCCCCCCCCCC[P+](c2ccccc2)(c2ccccc2)c2ccccc2)(c2ccccc2)c2ccccc2)cc1 [BPPB, 1,1-(1,12-dodecanediyl)-bis-[1,1,1]-triphenyl phosphonium di-bromide]",concentration giving significant increase in ROS levels,HTLA 230; 24 h,≥ 0.5 µM
same,highest value of DCFH-positive cells,HTLA 230; 24 h,2.96
same,increase in ROS with respect to the control,HTLA 230; 24 h exposure,> 3 times
same,average ROS production in HTLA 230 higher than in HTLA ER,HTLA 230; 48 h,1.3 times
same,concentration giving significant increase in ROS levels,HTLA 230; 48 h,≥ 0.5 µM
same,highest value of DCFH-positive cells,HTLA 230; 48 h,3.05
same,average ROS production in HTLA 230 higher than in HTLA ER,HTLA 230; 72 h,1.4 times
same,concentration giving significant increase in ROS levels,HTLA 230; 72 h,≥ 0.25 µM
same,highest value of DCFH-positive cells,"HTLA 230; 72 h, highest doses",5.8
same,more efficient in inducing ROS overproduction than TiO2-Ta nanoparticles,"HTLA 230; HTLA 230 and HTLA ER, 24 h",9.4–23.4 fold
same,cell viability,"spinal cord astrocytes; 1.17 µM, 48 h",72.17%
same,cell viability,"spinal cord astrocytes; 1.17 µM, 72 h",69.31%
same,cell viability,"spinal cord astrocytes; 2.93 µM, 24 h",74.95%
same,cell viability,"spinal cord astrocytes; 8.80 µM, 24 h",47.14%
same,cell viability,"spinal cord astrocytes; 8.80 µM, 72 h",42.70%
same,cell viability,"spinal cord astrocytes; 11.73 µM, 24 h",20.22%
same,cell viability,"spinal cord astrocytes; 11.73 µM, 48 h",45.18%
same,IC50,spinal cord astrocytes; 24 h exposure,~7.04 µM and 7.04 µM
same,IC50,spinal cord astrocytes; 48 h exposure,11 ± 5.09 µM
same,IC50,spinal cord astrocytes; 72 h exposure,5.09 ± 1.22 µM
same,SI values with respect to primary spinal cord astrocytes,"spinal cord astrocytes; HTLA 230 and HTLA ER, all exposure timings",4.25–23.73
same,selectivity index values,"spinal cord astrocytes; NB cells with respect to neurons and astrocytes, maximum",up to 23.7
same,SI 24 h,"spinal cord astrocytes; Spinal cord astrocytes vs. HTLA 230, 24 h",7.61
same,SI 48 h,"spinal cord astrocytes; Spinal cord astrocytes vs. HTLA 230, 48 h",23.73
same,SI 72 h,"spinal cord astrocytes; Spinal cord astrocytes vs. HTLA 230, 72 h",13.09
same,SI 24 h,"spinal cord astrocytes; Spinal cord astrocytes vs. HTLA ER, 24 h",5.69
same,SI 48 h,"spinal cord astrocytes; Spinal cord astrocytes vs. HTLA ER, 48 h",8.10
same,SI 72 h,"spinal cord astrocytes; Spinal cord astrocytes vs. HTLA ER, 72 h",4.25
